These results are taken from patent US10975037B2 (priority 2018, dated 2021).

Like-named read-outs stand apart in the source and are kept apart here. Marks after values point to notes of the source that are not given here.

The target in experiment [1] is human RORγt ligand binding domain (RORγt LBD) (Homo sapiens (Human), UniProt P51449). As to the kind of experiment: RORγt ThermoFluor® assay (thermal shift binding). An outline of the steps: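 Thermal shift with 0.065 mg/mL RORγt LBD and 60 μM 1,8-ANS in 100 mM Hepes pH 7.0, 10 mM NaCl, 2.5 mM GSH, 0.002% Tween-20.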
human RORγt ligand binding domain (RORγt LBD), sequence (P51449 other isoform, or with tags, fused parts or gaps): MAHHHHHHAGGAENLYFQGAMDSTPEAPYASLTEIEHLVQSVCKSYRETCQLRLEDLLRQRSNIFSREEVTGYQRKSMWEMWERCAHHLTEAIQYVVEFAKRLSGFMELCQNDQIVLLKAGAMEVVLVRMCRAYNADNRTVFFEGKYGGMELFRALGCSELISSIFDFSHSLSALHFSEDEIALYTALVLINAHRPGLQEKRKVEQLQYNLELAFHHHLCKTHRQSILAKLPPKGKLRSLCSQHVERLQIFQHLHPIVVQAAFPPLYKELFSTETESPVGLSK
Experiment [2] addresses full-length human RORγt (Homo sapiens (Human), UniProt P51449). As to the kind of experiment: RORγt (full-length human) reporter assay, conditions A or B, HEK293T cells. It counts as cell-based. The conditions noted are these: for inhibition at 2 µM / inhibition at […] / inhibition at 6 µM / inhibition at 3 µM / inhibition at 1 µM: HEK-293T; for inhibition at 2 µM: 2 μM compound concentration; for inhibition at 2 µM / inhibition at […] / inhibition at 3 µM / inhibition at 1 µM: read-out: RORγt (FL) Reporter Assay A or B, % inhibition; for inhibition at […]: 0.22 μM compound concentration (footnote *******); for inhibition at 6 µM: read-out: RORγt (FL) Reporter Assay A or B, % inhibition @ 6 μM, 6 μM compound concentration; for inhibition at 1 µM: 1 μM compound concentration (footnote ***). An outline of the steps: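 Dual-luciferase read-out was taken after an overnight (16–20 h) compound exposure. Firefly data were scaled between DMSO-only and saturating reference compound, Renilla-normalized, then plotted against concentration for IC50.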
Background: In a reporter assay the amount or activity of a reporter protein is the signal.

[3] abbreviates: read-out: ThermoFluor® Assay, Kd.
[4] abbreviates: RORγt (FL) Reporter Assay A or B, IC50, HEK293T cells.
[5] abbreviates: 3 μM compound concentration (footnote *).

Broadly, the Kd is the constant that tells how readily two partners part at equilibrium. As usually defined, the inhibition is the drop in the measured response relative to a control, in per cent. One may read the IC50 as the concentration that inhibits the measured activity by half.

full-length human RORγt, sequence (P51449 other isoform, or with tags, fused parts or gaps): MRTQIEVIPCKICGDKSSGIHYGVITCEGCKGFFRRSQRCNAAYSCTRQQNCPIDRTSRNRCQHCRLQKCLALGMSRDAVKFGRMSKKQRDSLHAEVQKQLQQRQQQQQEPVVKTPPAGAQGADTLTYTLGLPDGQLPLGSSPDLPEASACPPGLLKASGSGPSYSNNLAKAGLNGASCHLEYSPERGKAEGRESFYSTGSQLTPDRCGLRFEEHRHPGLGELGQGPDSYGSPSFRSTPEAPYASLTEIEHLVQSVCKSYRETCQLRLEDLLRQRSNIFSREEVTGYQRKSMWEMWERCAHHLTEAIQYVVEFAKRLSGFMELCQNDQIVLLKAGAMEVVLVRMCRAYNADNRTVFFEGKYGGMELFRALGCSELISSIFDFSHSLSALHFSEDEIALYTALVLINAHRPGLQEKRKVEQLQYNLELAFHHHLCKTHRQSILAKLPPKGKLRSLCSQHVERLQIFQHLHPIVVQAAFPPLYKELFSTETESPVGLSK

Regarding `CCn1nc(C(=O)NC[C@]2(O)CC[C@@H](S(C)(=O)=O)CC2)c(Cl)c1-c1ccc(CCC(F)(F)F)cc1F` [Example 180, 4-Chloro-1-ethyl-5-(2-fluoro-4-(3,3,3-trifluoropropyl)phenyl)-N-(((1s,4s)-1-hydroxy-4-(methylsulfonyl)cyclohexyl)methyl)-1H-pyrazole-3-carboxamide], the Kd in experiment [1] (setting [3]) is 0.046 µM. The inhibition at 2 µM in experiment [2] was 41%. The same compound came in with a 50% inhibitory concentration (IC50) in experiment [2] (setting [4]) of 0.066 µM.

As for `CCn1nc(C(=O)NC[C@]2(O)CC[C@@H](S(C)(=O)=O)CC2)c(Cl)c1-c1ccc(CC(C)(C)C(F)(F)F)cc1C` [Example 183, 4-Chloro-1-ethyl-N-(((1s,4s)-1-hydroxy-4-(methylsulfonyl)cyclohexyl)methyl)-5-(2-methyl-4-(3,3,3-trifluoro-2,2-dimethylpropyl)phenyl)-1H-pyrazole-3-carboxamide], in experiment [1] (setting [3]), the Kd was found to be 0.003 µM. Moreover, the inhibition at […] in experiment [2] was found to be 70%. The compound further came in with an IC50 in experiment [2] (setting [4]) of 0.0039 µM.

`COc1cc(N[C@H](C)C(F)(F)F)ccc1-c1c(Cl)c(C(=O)NC[C@H]2CC[C@H](S(C)(=O)=O)CC2)nn1C(C)(C)C` [Example 26, 1-(tert-Butyl)-4-chloro-5-(2-methoxy-4-(((R)-1,1,1-trifluoropropan-2-yl)amino)phenyl)-N-(((1r,4R)-4-(methylsulfonyl)cyclohexyl)methyl)-1H-pyrazole-3-carboxamide]: the Kd in experiment [1] (setting [3]) amounted to 0.0039 µM. Further, in experiment [2], the inhibition at 6 µM is 108%. Moreover, the half-inhibitory concentration (IC50) in experiment [2] (setting [4]) is 0.029 µM.

`CCn1nc(C(=O)NC[C@H]2CC[C@@H](S(C)(=O)=O)CN2)c(Cl)c1-c1ccc(CC(C)(C)C(F)(F)F)cc1OC(F)F` (stereo in doubt) [Example 13, 4-Chloro-5-(2-(difluoromethoxy)-4-(3,3,3-trifluoro-2,2-dimethylpropyl)phenyl)-1-ethyl-N-(((2R*,5R*)-5-(methylsulfonyl)piperidin-2-yl)methyl)-1H-pyrazole-3-carboxamide]: the Kd in experiment [1] (ThermoFluor® Assay, Kd) turned out to be 0.11 µM. Also, the inhibition at 3 µM in experiment [2] (setting [5]) was 90%. The same compound showed an IC50 in experiment [2] (setting [4]) of 0.19 µM.

Regarding `CCn1nc(C(=O)NC[C@@]2(O)CC[C@H](S(C)(=O)=O)C[C@@H]2O)c(Cl)c1-c1ccc(C[C@H](C)C(F)(F)F)cc1OC(F)F` (stereo in doubt) [Example 52, 4-Chloro-5-(2-(difluoromethoxy)-4-((S*)-3,3,3-trifluoro-2-methylpropyl)phenyl)-N-(((1S*,2S*,4S*)-1,2-dihydroxy-4-(methylsulfonyl)cyclohexyl)methyl)-1-ethyl-1H-pyrazole-3-carboxamide], the Kd in experiment [1] (ThermoFluor® Assay, Kd) is 0.0035 µM. The inhibition at 3 µM in experiment [2] (setting [5]) is 103%. The compound also gave a half-inhibitory concentration (IC50) in experiment [2] (setting [4]) of 0.026 µM.

Consider `CCn1nc(C(=O)NC[C@H]2CC[C@H](S(C)(=O)=O)CC2)c(Cl)c1-c1ccc(N[C@H](C)C(F)(F)F)cc1OC(C)C` [Example 207, 4-Chloro-1-ethyl-5-(2-isopropoxy-4-(((R)-1,1-trifluoropropan-2-yl)amino)phenyl)-N-(((1r,4R)-4-(methylsulfonyl)cyclohexyl)methyl)-1H-pyrazole-3-carboxamide], for which, in experiment [1] (setting [3]), the Kd was found to be 0.01 µM. Moreover, in experiment [2], the inhibition at 6 µM was 101%. The compound further showed an IC50 in experiment [2] (setting [4]) of 0.04 µM.

Take `CCn1nc(C(=O)NC[C@]2(CO)CC[C@@H](S(C)(=O)=O)CC2)c(Cl)c1-c1ccc(CC(C)(C)C(F)(F)F)cc1OC(F)F` [Example 91, 4-Chloro-5-(2-(difluoromethoxy)-4-(3,3,3-trifluoro-2,2-dimethylpropyl)phenyl)-1-ethyl-N-(((1s*,4s*)-1-(hydroxymethyl)-4-(methylsulfonyl)cyclohexyl)methyl)-1H-pyrazole-3-carboxamide]: the dissociation constant (Kd) in experiment [1] (setting [3]) amounted to 0.00024 µM. Moreover, in experiment [2], the inhibition at 1 µM amounted to 99%. The IC50 in experiment [2] (setting [4]) came out at 0.0037 µM.

As for `CCC(=O)NS(=O)(=O)[C@H]1CC[C@H](CNC(=O)c2nn(CC)c(-c3ccc(CC(C)(C)C(F)(F)F)cc3OC(F)F)c2Cl)CC1` [Example 70, 4-Chloro-5-(2-(difluoromethoxy)-4-(3,3,3-trifluoro-2,2-dimethylpropyl)phenyl)-1-ethyl-N-(((r,4r)-4-(N-propionylsulfamoyl)cyclohexyl)methyl)-1H-pyrazole-3-carboxamide], in experiment [1] (setting [3]), the Kd was 0.00072 µM. Further, in experiment [2] (setting [5]), the “RORγt (FL) Reporter Assay A or B, % inhibition” value is recorded as 103* %. In experiment [2] (HEK293T cells, read-out: RORγt (FL) Reporter Assay A or B, IC50), the IC50 turned out to be 0.023 µM.

As to `Cn1nc(C(=O)NC[C@@]2(O)CC[C@H](S(C)(=O)=O)C[C@@H]2O)c(Cl)c1-c1ccc(CC(C)(C)C(F)(F)F)cc1OC(F)F` (relative stereo) [Example 153, 4-Chloro-5-(2-(difluoromethoxy)-4-(3,3,3-trifluoro-2,2-dimethylpropyl)phenyl)-N-(((1S*,2S*,4S*)-1,2-dihydroxy-4-(methylsulfonyl)cyclohexyl)methyl)-1-methyl-1H-pyrazole-3-carboxamide], in experiment [1] (ThermoFluor® Assay, Kd), the Kd came out at 0.009 µM. The inhibition at 3 µM in experiment [2] (setting [5]) turned out to be 85%. This compound also registered an IC50 in experiment [2] (setting [4]) of 0.049 µM.

For the compound `CCn1nc(C(=O)NC[C@H]2CC[C@H](S(C)(=O)=O)CC2)c(Cl)c1-c1ccc(CC(C)(C)C(F)(F)F)cc1OC(F)F` [Example 2, 4-Chloro-5-(2-(difluoromethoxy)-4-(3,3,3-trifluoro-2,2-dimethylpropyl)phenyl)-1-ethyl-N-(((1r,4r)-4-(methylsulfonyl)cyclohexyl)methyl)-1H-pyrazole-3-carboxamide], in experiment [1] (setting [3]), the Kd was found to be 0.00016 µM. For the same compound, in experiment [2], the inhibition at […] was determined as 94%. In experiment [2] (setting [4]), this compound showed an IC50 of 0.0044 µM.

As for `CCn1nc(C(=O)NC[C@H]2CC[C@H](S(N)(=O)=O)CC2)c(Cl)c1-c1ccc(C[C@@H](C)C(F)(F)F)cc1OC(F)F` (single isomer, unassigned) [Example 139, 4-Chloro-5-(2-(difluoromethoxy)-4-((R*)-3,3,3-trifluoro-2-methylpropyl)phenyl)-1-ethyl-N-(((1r,4R)-4-sulfamoylcyclohexyl)methyl)-1H-pyrazole-3-carboxamide], in experiment [1] (ThermoFluor® Assay, Kd), the Kd stood at 0.00058 µM. For the same compound, the inhibition at 1 µM in experiment [2] worked out at 122%. This compound also displayed an IC50 in experiment [2] (setting [4]) of 0.0027 µM.

Regarding `CCn1nc(C(=O)NC[C@]2(O)CC[C@@H](S(C)(=O)=O)CC2)c(Cl)c1-c1ccc(C(O)(C(F)(F)F)C(F)(F)F)cc1OC(F)F` [Example 117, 4-Chloro-5-(2-(difluoromethoxy)-4-(1,1,1,3,3,3-hexafluoro-2-hydroxypropan-2-yl)phenyl)-1-ethyl-N-(((1s,4s)-1-hydroxy-4-(methylsulfonyl)cyclohexyl)methyl)-1H-pyrazole-3-carboxamide], the Kd in experiment [1] (setting [3]) is 0.00027 µM. Besides, in experiment [2] (setting [5]), the inhibition at 3 µM was 102%. The IC50 in experiment [2] (setting [4]) was 0.0042 µM.

Consider `CCn1nc(C(=O)NC[C@H]2CC[C@H](S(C)(=O)=O)CC2)c(Cl)c1-c1ccc(CCC(F)(F)F)cc1C(F)(F)F` [Example 171, 4-Chloro-1-ethyl-N-(((1r,4r)-4-(methylsulfonyl)cyclohexyl)methyl)-5-(2-(trifluoromethyl)-4-(3,3,3-trifluoropropyl)phenyl)-1H-pyrazole-3-carboxamide], for which the Kd in experiment [1] (setting [3]) is 0.014 µM. The inhibition at 2 µM in experiment [2] was 24%. In experiment [2] (setting [4]), the IC50 amounted to 0.44 µM.

On to `CCn1nc(C(=O)NC[C@]2(O)CC[C@@H](S(C)(=O)=O)CC2)c(Cl)c1-c1ccc([C@](C)(O)CC(F)(F)F)cc1OC(F)F` (single isomer, unassigned) [Example 100, 4-Chloro-5-(2-(difluoromethoxy)-4-((R*)-4,4,4-trifluoro-2-hydroxybutan-2-yl)phenyl)-1-ethyl-N-(((1s,4S)-1-hydroxy-4-(methylsulfonyl)cyclohexyl)methyl)-1H-pyrazole-3-carboxamide], for which the dissociation constant Kd in experiment [1] (ThermoFluor® Assay, Kd) came to 0.069 µM. Moreover, the inhibition at 3 µM in experiment [2] (setting [5]) turned out to be 49%. For the same compound, in experiment [2] (setting [4]), the half-inhibitory concentration (IC50) was 0.22 µM.

With `CC(C)(O)Cn1nc(C(=O)NC[C@]2(O)CC[C@@H](S(C)(=O)=O)CC2)c(Cl)c1-c1ccc(CC(C)(C)C(F)(F)F)cc1OC(F)F` [Example 144, 4-Chloro-5-(2-(difluoromethoxy)-4-(3,3,3-trifluoro-2,2-dimethylpropyl)phenyl)-1-(2-hydroxy-2-methylpropyl)-N-(((1s,4s)-1-hydroxy-4-(methylsulfonyl)cyclohexyl)methyl)-1H-pyrazole-3-carboxamide], the Kd in experiment [1] (setting [3]) was found to be 0.011 µM. In experiment [2], the inhibition at 6 µM is 112%. The compound further displayed an IC50 in experiment [2] (setting [4]) of 0.031 µM.

For `CCn1nc(C(=O)NC[C@]2(O)CC[C@@H](S(C)(=O)=O)CC2)c(Cl)c1-c1ccc(C(O)CCC(F)(F)F)cc1OC(F)F` (stereo partly drawn) [Example 98, 4-Chloro-5-(2-(difluoromethoxy)-4-(4,4,4-trifluoro-1-hydroxybutyl)phenyl)-1-ethyl-N-(((1s,4s)-1-hydroxy-4-(methylsulfonyl)cyclohexyl)methyl)-1H-pyrazole-3-carboxamide], the dissociation constant (Kd) in experiment [1] (setting [3]) was 0.31 µM. Further, the inhibition at 3 µM in experiment [2] (setting [5]) is 89%. The compound also returned a 50% inhibitory concentration (IC50) in experiment [2] (setting [4]) of 0.071 µM.

In the case of `CCCn1nc(C(=O)NC[C@H]2CC[C@H](S(C)(=O)=O)CC2)c(Cl)c1-c1ccc(N[C@H](C)C(F)(F)F)cc1OC` [Example 30, 4-Chloro-5-(2-methoxy-4-(((R)-1,1,1-trifluoropropan-2-yl)amino)phenyl)-N-(((1r,4R)-4-(methylsulfonyl)cyclohexyl)methyl)-1-propyl-1H-pyrazole-3-carboxamide], the Kd in experiment [1] (setting [3]) was 0.0021 µM. In experiment [2], the inhibition at 2 µM was 104%. In experiment [2] (setting [4]), this compound yielded an IC50 of 0.027 µM.
